# Like-named read-outs stand apart in the source and are kept apart here.
# Key:
# Format in all cases: binding, sheep
# [1] = test system: Antibody to Immunogen II; assay: Competitive ELISA (Example 36), antibody RS1833B12, tracer ESC4555/LK959, standard JWH-018
# Summary of the method: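 Sheep antiserum IgG coated on plates overnight at 4°C; standard or cross-reactant competes with hapten-HRP conjugate in Tris buffer pH 7.2 for 1 h at 25°C.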
# [2] = test system: Antibody to Immunogen VIII
# [3] = test system: Antibody to Immunogen VII; details: Cross-reactants at 100 ng/ml; Antibody to Immunogen VII
# [4] = test system: Antibody to Immunogen IV
# [5] = test system: Antibody to Immunogen I
# Summary of the method: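 Sheep anti-Immunogen I IgG coated on plates, then JWH-018 standards (0–40 ng/ml) competed with hapten-HRP conjugate for 1 h at 25°C. TMB read-out at 450 nm, 4-parameter fit. IC50 is the standard concentration giving 50% B/B0; cross-reactivity of related cannabinoids taken from the calibration curves.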
# [6] = Cross-reactants at 100 ng/ml, Antibody to Immunogen II
# [7] = Cross-reactants at 100 ng/ml, Antibody to Immunogen VIII
# [8] = Cross-reactants at 100 ng/ml, Antibody to Immunogen IV
# [9] = Cross-reactants at 100 ng/ml, Antibody to Immunogen I
# [10] = Table 3a standard curve, standard concentration which produces 50% B/B0
compound,measurement,setting,value
CCCCn1cc(C(=O)c2cccc3ccccc23)c2ccccc21 [JWH-073],%B/B0,[1]; [6],15.24%
same,%B/B0,[2]; [7],25.50%
same,%B/B0,[3],58.34%
same,%B/B0,[4]; [8],13.63%
same,%B/B0,[5]; [9],3.56%
CCCCCn1cc(C(=O)c2cccc3ccccc23)c2c(O)cccc21 [JWH-018 4-hydroxyindole metabolite],%B/B0,[1]; [6],29.49%
same,%B/B0,[2]; [7],16.72%
same,%B/B0,[3],89.96%
same,%B/B0,[4]; [8],20.42%
same,%B/B0,[5]; [9],46.39%
O=C(c1cccc2ccccc12)c1cn(CCCCCO)c2ccccc12 [JWH-018 N-(5-hydroxypentyl) metabolite],%B/B0,[1]; [6],53.38%
same,%B/B0,[2]; [7],57.37%
same,%B/B0,[3],53.32%
same,%B/B0,[4]; [8],78.42%
same,%B/B0,[5]; [9],3.50%
CCCCCn1cc(C(=O)c2cccc3ccccc23)c2ccccc21 [JWH-018],%B/B0,[1]; [6],9.29%
same,%B/B0,[1]; JWH-018 standard 0.625 ng/ml,68%
same,%B/B0,[1]; JWH-018 standard 1.25 ng/ml,53%
same,%B/B0,[1]; JWH-018 standard 2.5 ng/ml,34%
same,%B/B0,[1]; JWH-018 standard 5 ng/ml,25%
same,%B/B0,[1]; JWH-018 standard 10 ng/ml,17%
same,%B/B0,[1]; JWH-018 standard 20 ng/ml,13%
same,%B/B0,[1]; JWH-018 standard 40 ng/ml,10%
same,IC50,[1]; [10],1.333 ng/mL
same,%B/B0,[2]; [7],17.66%
same,%B/B0,[2]; JWH-018 standard 1 ng/ml,79%
same,%B/B0,[2]; JWH-018 standard 3 ng/ml,63%
same,%B/B0,[2]; JWH-018 standard 5 ng/ml,51%
same,%B/B0,[2]; JWH-018 standard 10 ng/ml,40%
same,%B/B0,[2]; JWH-018 standard 20 ng/ml,29%
same,%B/B0,[2]; JWH-018 standard 40 ng/ml,22%
same,%B/B0,[2]; JWH-018 standard 80 ng/ml,16%
same,IC50,"[2]; Table 3c standard curve, standard concentration which produces 50% B/B0",5.230 ng/mL
same,%B/B0,[3],67.66%
same,%B/B0,[4]; [8],6.80%
same,%B/B0,[4]; JWH-018 standard 1.25 ng/ml,87%
same,%B/B0,[4]; JWH-018 standard 2.5 ng/ml,68%
same,%B/B0,[4]; JWH-018 standard 5 ng/ml,42%
same,%B/B0,[4]; JWH-018 standard 10 ng/ml,26%
same,%B/B0,[4]; JWH-018 standard 20 ng/ml,16%
same,%B/B0,[4]; JWH-018 standard 40 ng/ml,10%
same,%B/B0,[4]; JWH-018 standard 80 ng/ml,7%
same,IC50,"[4]; Table 3b standard curve, standard concentration which produces 50% B/B0",4.133 ng/mL
same,%B/B0,[5]; [9],5.19%
same,%B/B0,[5]; JWH-018 standard 0.625 ng/ml,77%
same,%B/B0,[5]; JWH-018 standard 1.25 ng/ml,62%
same,%B/B0,[5]; JWH-018 standard 2.5 ng/ml,44%
same,%B/B0,[5]; JWH-018 standard 5 ng/ml,31%
same,%B/B0,[5]; JWH-018 standard 10 ng/ml,20%
same,%B/B0,[5]; JWH-018 standard 20 ng/ml,14%
same,%B/B0,[5]; JWH-018 standard 40 ng/ml,9%
same,IC50,[5]; [10],2.016 ng/mL
"O=C(c1cccc2ccccc12)c1cn(CCN2CCOCC2)c2ccccc12 [WIN 55,225 (other name JWH-200), JWH-200]",%B/B0,[1]; [6],54.02%
same,%B/B0,[2]; [7],98.81%
same,%B/B0,[3],42.85%
same,%B/B0,[4]; [8],77.08%
same,%B/B0,[5]; [9],3.51%
CCCCCn1cc(C(=O)c2ccc(Cl)c3ccccc23)c2ccccc21 [JWH-398],%B/B0,[1]; [6],30.31%
same,%B/B0,[2]; [7],18.66%
same,%B/B0,[3],94.47%
same,%B/B0,[4]; [8],6.00%
same,%B/B0,[5]; [9],60.31%
O=C(O)CCCCn1cc(C(=O)c2cccc3ccccc23)c2ccccc21 [JWH-018 N-pentanoic acid metabolite],%B/B0,[1]; [6],85.61%
same,%B/B0,[2]; [7],100.31%
same,%B/B0,[3],53.02%
same,%B/B0,[4]; [8],99.89%
same,%B/B0,[5]; [9],4.51%
CCCCCn1cc(C(=O)c2cccc3ccccc23)c2cc(O)ccc21 [JWH-018 5-hydroxyindole metabolite],%B/B0,[1]; [6],12.14%
same,%B/B0,[2]; [7],87.67%
same,%B/B0,[3],85.76%
same,%B/B0,[4]; [8],78.56%
same,%B/B0,[5]; [9],11.79%
CCCCCn1cc(C(=O)c2cccc3ccccc23)c2ccc(O)cc21 [JWH-018 6-hydroxyindole metabolite],%B/B0,[1]; [6],24.39%
same,%B/B0,[2]; [7],89.86%
same,%B/B0,[3],68.17%
same,%B/B0,[4]; [8],51.00%
same,%B/B0,[5]; [9],8.07%
"O=C(c1cccc2ccccc12)c1c[nH]c2ccccc12 [3-(1-naphthoyl)-1H-Indole, 3-(1-naphthoyl)-1H-indole]",%B/B0,[1]; [6],99.18%
same,%B/B0,[2]; [7],90.49%
same,%B/B0,[3],80.08%
same,%B/B0,[4]; [8],95.55%
same,%B/B0,[5]; [9],15.63%
